# Test results taken from ChEMBL document CHEMBL1139116, “Discovery and SAR of isonicotinamide BACE-1 inhibitors that bind beta-secretase in a N-terminal 10s-loop down conformation” (Bioorg Med Chem Lett, 2007).
# Assay: Partition coefficient, log P of the compound
# Type: physicochemical
# Conditions: octanol/water
row,logP,SMILES
1,> 2.51,CCCC[C@H](N)[C@H](Cc1ccccc1)NC(=O)c1cc(NCC2CC2C)nc(N(C)S(C)(=O)=O)c1 (mixture of isomers)
2,> 3.5,CC1CC1CNc1cc(C(=O)N[C@@H](Cc2ccccc2)[C@@H](N)CCC(F)(F)F)cc(N(C)S(C)(=O)=O)n1 (mixture of isomers)
